How the values were obtained:
[1] = Volatile organic content (VOC) of the neat amine, modified EPA Method 24; format: physicochemical; conditions: for VOC / Volatility by the modified EPA Test Method 24: neat amine; for VOC: 1 h at 105-110° C., percent weight loss
Procedure: Volatile Organic Content (VOC). VOC is measured following EPA Method 24. The amines are weighed in a pan and kept in an oven for 1 h at 105-110° C. The percent weight loss is reported as the VOC, corrected for the water content in the sample which can be measured by Karl Fisher Titration.

[2] = pKa of the neat neutralizer by titration with hydrochloric acid; format: physicochemical; conditions: neat amine; for pKa: titration; for pK1: first pKa by titration; for pK2: second pKa by titration
Procedure: pKa. pKa is measured by titration with a hydrochloric acid titrant solution, using an automated titrator that monitors pH with a combination electrode. The titrator plots pH vs. volume of titrant added, and first determines the titration endpoint(s) of each amine as the volume of titrant added at the inflection point(s) of the curve. The titrator reports the amine pKa value as the pH value at which one-half of the endpoint titrant volume has been delivered, or in the case of multiple endpoints, multiple pKa values are determined using the midpoints between titration endpoints. The inventive amines tested in this example each have two pKa values, due to the two different amine groups in each compound's respective molecular structure.

VOC contribution [1] | pKa [2] | VOC [1] | pK1 [2] | pK1 ([2]; listed as TA-AcyHM) | pK2 [2] | pK2 ([2]; listed as TA-AcyHM) | Volatility by the modified EPA Test Method 24 [1] | SMILES
3.9% | – | – | – | – | – | – | – | CC(C)(N)CNC(CO)(CO)CO [2-(2-amino-2-methylpropylamino)-2-(hydroxymethyl)propane-1,3-diol]
– | 8.8 | 19% | – | – | – | – | – | CCC(N)(CO)CO [AEPD, 2-Amino-2-ethyl-1,3-propane-diol, reference compound]
– | 9 | 21% | – | – | – | – | – | CCCCN(CCO)CCO [NBDA, N-Butyl-diethanolamine, reference compound]
essentially zero VOC contribution | – | 3.8% | 9.7 | pK1 9.7 | 4.5 | pK2 4.5 | 3.8% | NC1(CNC(CO)(CO)CO)CCCCC1 [TA-ACyHM, 2-((1-aminocyclohexyl)methylamino)-2-(hydroxymethyl)propane-1,3-diol]
– | – | 3.9% | – | – | – | – | 3.9% | CC(C)(N)CNC(CO)(CO)CO [TA-AMP, 2-(2-Amino-2-methylpropylamino)-2-(hydroxymethyl)propane-1,3-diol]

SMILES | VOC contribution [1] | pKa [2] | VOC [1] | pK1 [2] | pK1 ([2]; listed as TA-AcyHM) | pK2 [2] | pK2 ([2]; listed as TA-AcyHM) | Volatility by the modified EPA Test Method 24 [1]
CC(C)(N)CO [AMP, 2-Amino-2-methyl-1-propanol, reference compound] | 100% | 9.7 | 100% | – | – | – | – | –

Source: patent US7939589B2, “Polyhydroxy-diamines as low odor, low VOC multi-functional additives for paints and coatings” (Angus Chemical Company, priority 2009, dated 2011)
